Laboratory results as given in US20160194336A1, “P38 MAPK INHIBITORS FOR THE TREATMENT OF INFLAMMATORY DISEASES” (ALLINKY BIOPHARMA, priority 2012, published 2016).
Where two headings read alike, the source gives them in different places. Blank lines part the entries; values can stand above or below the molecule they belong to.

Key:
p38alpha [1] = molecular target: T1, p38alpha (Homo sapiens, UniProt Q16539); assay: p38 cascade kinase reaction (inactive p38alpha, MKK6, ATF2, ADP-Glo); format: biochemical; settings: for inhibition at 10 µM: compound 10 μM; for inhibition at 100 µM: compound 100 μM
T1 construct: purchased Invitrogen PV3305
Procedure: Purified recombinant activated p38alpha (10 nM)(ProQinase) was preincubated 10 minutes at 30° C. with the compound of interest at concentrations between 1 and 100 µM in duplicate in a final volume of 30 ul of kinase buffer (Hepes 60 mM pH 7.5, MgCl2 3 mM, MnCl2 3 mM, Sodium Orthovanadate 3 μM, DTT 1.2 mM). After preincubation, peptide substrate (SignalChem #P03-58) and ATP were added to a final concentration of 10 μM and 100 μM respectively, and then incubated 40 minutes at 30° C. for the kinase reaction. Phosphorylation was analyzed with ADP-GloM (Promega #V9101) and emitted luminescence was measured with BMG Fluostar microplate reader.
(§1) After preincubation, MKK6 (ProQinase), ATF2 (ProQinase) and ATP were added to a final concentration of 10 nM, 5 μM and 10 μM respectively, then incubated 40 minutes at 30° C. and analyzed with ADP-Glo™.

p38αR189A = molecular target: T2, p38αR189A (Homo sapiens, UniProt Q16539, R189A); assay: site-mutated p38 phosphorylation cascade assay, R189A mutant; format: biochemical; settings: compound 10 uM
T2 construct: made in house; host or cells: E. coli XL10-Gold
Procedure: as §1
(§2) Replacement of specific residues arginine 186 and 189 of p38α (pGEX4T-1-p38α) for alanine was performed with the QuikChange Lightining Site-Directed Mutagenesis Kit (Agilent Technologies). The following oligonucleotides were used for the arginine 186 to alanine substitution: forward primer: 5′-SEQ ID NO 7-3′; reverse primer: 5′-SEQ ID NO 8-3′. Oligonucleotides used for the arginine 189 to alanine substitution were: forward primer: 5′-SEQ ID NO 9-3′; reverse primer: 5′-SEQ ID NO 10-3′. Mutations were validated by sequencing (Genomic Unit, Parque Cientifico de Madrid). E. coli XL10-Gold ultracompentent cells (Agilent Technologies) were transformed with the vector plasmids containing p38αWT and mutants. For the expression of recombinant p38α transformed cells were cultured overnight at 37° C. in 50 ml of fresh LB medium containing ampicillin (100 μg/ml). After that, culture was diluted in fresh LB to A595=0.4 and grown for approximately 1 h at 37° C. until exponential growth and then induced with Isopropyl-β-D-thiogalactopyranoside (IPTG) 1 mM for 5 h. The cells were collected by centrifugation and cell pellet were resuspended in 50 ml of cold lysis buffer: PBS pH 7.4, EDTA 10 mM, PMSF 1 mM, Benzamidine 0.2 mM, DTT 5 mM, Triton X-100 1% and Lysozyme 1 mg/ml. The soluble and insoluble fractions were separated by centrifugation (16,000 g for 20 min). The soluble fraction was incubated for 2 hours with 1 ml of pre-equilibrated Glutathione Sepharose 4B (GE Healthcare) and the resin was extensively washed in a column with 200 ml of binding buffer: PBS, PMSF 1 mM and benzamidine 0.2 mM. Proteins were eluted with 1 ml of Tris-HCl 50 mM pH 8.0 and reduced glutathione 20 mM. 20% glycerol was added to purified proteins and stored at −80° C. Protein concentration and purity was assessed by SDS-PAGE. Kinase activity was measured by ADP-glo kit using MKK6 as activator and ATF2 as substrate. Activity recorded for p38αR186A and p38αR189A were 15.5% and 4.8%, respectively (n=4) related to wild type protein.

THP-1 cells = assay: survival of monocytes with LPS; format: cell-based, human
p38alpha [2] = molecular target: T1, p38alpha; assay: p38 cascade kinase reaction (inactive p38alpha, MKK6, ATF2, ADP-Glo); format: biochemical; settings: ATP 100 μM; compound 10 μM; n=4; read-out: inhibition, ATP-site competitive assay, cascade p38alpha/ATF-2
[3] = test system: TNF-α secretion, THP-1 cells; assay: Inhibition of TNF-α secretion by LPS-stimulated THP-1; format: cell-based; settings: Homo sapiens, THP-1, 3 h, monocytes with LPS, read-out: TNF abetment
Procedure: Inhibition of TNF-α Secretion by a Human Monocytic Cell Line, THP-1.
THP-1 cells, growing in log phase, were collected by centrifugation and resuspended in RPMI 1640 (Sigma Aldrich), to a final cell concentration of 2×10^6 cells/ml. Cells were plated into 24-well plates (BD Biosciences). Dilutions of compounds in dimethyl sulfoxide (DMSO) were added to the culture to a final concentration M. The final DMSO concentration was 0.5%. The cells […] suspensions were preincubated with compounds for 1 h at 37° C. in a 5% C02 humidified atmosphere before the addition of LPS (Sigma Aldrich, L2654) to a final concentration of 2 μg/ml. After that, cells were incubated for 3 h followed by centrifugation to pellet cells. Cell supernatants were stored at 4° C. until Human analysis for TNF-α content. TNF-α levels were determined by ELISA (TNF Biotrak, GE Healthcare) following the manufacturer's directions. The percentage inhibition was calculated for each compound concentration tested, and the IC50 was calculated for each compound.

[4] = test system: Fibroblast-like synoviocytes (FLS) from patients with rheumatoid arthritis; assay: inflammatory mediators (IL6, IL8, MCP-1) by ELISA in FLS stimulated with TNF-alpha; format: cell-based, human; settings: for % of inflammatory mediators production in the presence of compounds, IL6 / % of inflammatory mediators production in the presence of compounds, IL8 / % of inflammatory mediators production in the presence of compounds, MCP-1: synoviocytes, TNFa + compound 100 uM
Procedure: Fibroblast-like synoviocytes (FLS) from patients with rheumatoid arthritis (RA) were obtained at the time of synovectomy or joint replacement. All RA patients fulfilled the American College of Rheumatology […] criteria for the diagnosis of RA (Arnett FC y cols. 1988 Arthritis Rheum 31(3):315-24).
Synovial tissue was minced and incubated with 10 μg/ml collagenase in serum-free Dulbecco modified Eagle medium (DMEM; Gibco Invitrogen, Barcelona, Spain) for 3 h at 37° C. After digestion, FLS were filtered through a nylon cell strainer (BD Falcon, Franklin Lakes, USA), washed extensively, and cultured in DMEM supplemented with 10% v/v fetal calf serum, 1% penicillin-streptomycin, and 1% L-glutamine (all reagents from PAA, Laboratories GmbH) in a humidified 5% C02 atmosphere. Adherent cells at 80-90% confluence were trypsinised and diluted at a split ratio of 1:3. FLS from 4 patients and between passages 3 to 8 were used for all experiments.
Enzyme-Linked Immunosorbent Assay (ELISA): RA FLS (1×10^4 cells/well) were cultured in DMEM 1% FCS in 96 well plates and treated with p-p38 inhibitors for 1 h. After, they were stimulated with TNF-α (10 ng/ml, Sigma Aldrich) and both treatments were present in the culture throughout the experiment. The supernatants were harvested at 18 h after treatment and assayed for IL6, IL8/CXCL8 and monocyte chemoattractant protein (MCP)-1/CCL2 by ELISA according to the manufacturer's instructions (BD Bioscience, San Jose, Calif., USA).

p38alpha wt = molecular target: T3, p38alpha wt (Homo sapiens, UniProt Q16539); assay: site-mutated p38 phosphorylation cascade assay, wild type; format: biochemical; settings: compound 10 uM
T3 construct: made in house; host or cells: E. coli XL10-Gold
Procedure: as §1, §2

p38αR186A = molecular target: T4, p38αR186A (Homo sapiens, UniProt Q16539, R186A); assay: site-mutated p38 phosphorylation cascade assay, R186A mutant; format: biochemical; settings: compound 10 uM
T4 construct: made in house; host or cells: E. coli XL10-Gold
Procedure: as §1, §2

p38beta = p38beta (Homo sapiens, UniProt Q15759); assay: p38 cascade kinase reaction, p38beta/ATF-2; format: biochemical
Procedure: as §1

[5] = molecular target: ATF2 (ProQinase) (Homo sapiens (Human)) (UniProt P15336)
[6] = read-out: inhibition p38a/ATF-2 (p38 cascade)
[7] = dose response table, read-out: inhibition p38alpha/ATF-2
[8] = FLS sample R 2, compound 100 μM
[9] = FLS sample R 6, compound 100 μM
[10] = FLS sample R 8, compound 100 μM
[11] = FLS sample SH203, compound 100 μM
[12] = mean of 4 FLS samples, compound 100 μM

T4 sequence (Q16539 whole entry R186A): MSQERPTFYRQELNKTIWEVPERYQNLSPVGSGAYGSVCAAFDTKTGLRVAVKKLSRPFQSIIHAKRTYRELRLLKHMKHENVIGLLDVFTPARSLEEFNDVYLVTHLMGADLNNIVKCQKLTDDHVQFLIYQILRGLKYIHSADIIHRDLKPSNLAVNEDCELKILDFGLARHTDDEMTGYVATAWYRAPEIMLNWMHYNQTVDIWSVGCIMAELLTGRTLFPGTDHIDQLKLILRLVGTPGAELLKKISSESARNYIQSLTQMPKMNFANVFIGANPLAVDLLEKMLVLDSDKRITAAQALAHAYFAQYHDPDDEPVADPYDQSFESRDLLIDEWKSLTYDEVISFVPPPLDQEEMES
T3 sequence (Q16539 whole entry): as the sequence (Q16539 whole entry R186A) above, with A186R counted along it
T1 sequence (Q16539 whole entry): as the sequence (Q16539 whole entry R186A) above, with A186R counted along it
T2 sequence (Q16539 whole entry R189A): as the sequence (Q16539 whole entry R186A) above, with A186R, R189A counted along it
Sequence of p38beta (Q15759 whole entry): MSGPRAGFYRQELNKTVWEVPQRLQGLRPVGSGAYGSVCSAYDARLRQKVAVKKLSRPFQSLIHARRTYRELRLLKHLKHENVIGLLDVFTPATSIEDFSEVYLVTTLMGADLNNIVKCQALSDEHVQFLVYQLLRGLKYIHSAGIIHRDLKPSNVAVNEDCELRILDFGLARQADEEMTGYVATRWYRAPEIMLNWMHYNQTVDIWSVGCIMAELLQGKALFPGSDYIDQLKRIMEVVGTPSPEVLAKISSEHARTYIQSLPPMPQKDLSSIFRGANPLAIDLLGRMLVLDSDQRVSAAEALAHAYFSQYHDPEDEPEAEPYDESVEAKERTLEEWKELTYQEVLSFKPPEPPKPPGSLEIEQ

Molecule: CCOC(=O)c1ccc(Nc2nc3nonc3nc2N2CCC(Cc3ccccc3)CC2)cc1 [Compound 1]
- inhibition at 10 µM (p38αR189A): 25%
- Cell survival (THP-1 cells; 1 uM): 96%
- Cell survival (THP-1 cells; 10 uM): 93%
- inhibition at 10 µM (p38alpha [1]; ATP 10 μM, n=4, read-out: inhibition, ATP-site competitive assay, cascade p38alpha/ATF-2): 94%
- inhibition upon ATP increase (ATP-site competition) (p38alpha [1]; cascade p38alpha/ATF-2, n=4): Maintains Inhibition to the Same Level Upon ATP Increase
- inhibition at 10 µM (p38alpha [1]; [7]): 88%
- inhibition at 100 µM (p38alpha [1]; [7]): 101%
- inhibition at 10 µM (p38alpha [2]): 92%
- inhibition at 1 µM [3]: 9%
- inhibition at 10 µM [3]: 40%
- IL-6, % of TNF-α control [4, 8]: 13.8%
- IL-8, % of TNF-α control [4, 8]: 27.3%
- MCP-1, % of TNF-α control [4, 8]: 2.1%
- IL-6, % of TNF-α control [4, 9]: 8.1%
- IL-8, % of TNF-α control [4, 9]: 4.8%
- MCP-1, % of TNF-α control [4, 9]: 0.0%
- IL-6, % of TNF-α control [4, 10]: 23.5%
- IL-8, % of TNF-α control [4, 10]: 67.4%
- MCP-1, % of TNF-α control [4, 10]: 22.5%
- IL-6, % of TNF-α control [4, 11]: 101.4%
- IL-8, % of TNF-α control [4, 11]: 43.8%
- MCP-1, % of TNF-α control [4, 11]: 8.8%
- IL-6, % of TNF-α control, Media [4, 12]: 36.7%
- IL-8, % of TNF-α control, Media [4, 12]: 35.8%
- MCP-1, % of TNF-α control, Media [4, 12]: 8.4%
- inhibition at 10 µM (p38alpha wt): 64%
- inhibition at 10 µM (p38αR186A): 20%
- inhibition at 10 µM (p38beta; compound 10 μM): 58%
- inhibition at 100 µM (p38beta; compound 100 μM): 100%

Molecule: MKK6 (ProQinase) (from UniProt P52564) (enzyme)
- kinase activity of the cascade MKK6/p38α/ATF2 (ADP-glo kit) (% related to wild type protein) (p38αR189A (Homo sapiens)): 4.8
- kinase activity of the cascade MKK6/p38α/ATF2 (ADP-glo kit) (% related to wild type protein) (p38αR186A (Homo sapiens)): 15.5

Molecule: p38αR189A (enzyme)
- kinase activity (ADP-glo kit) (% related to wild type protein) [5]: 4.8

Molecule: CCOC(=O)N1CCN(C2=Nc3nnnn3C3CC4CN(Cc5ccccc5)CCC4C23)CC1 (stereo not shown) [Compound 32]
- inhibition at 10 µM (p38αR189A): 9%
- Cell survival (THP-1 cells; 10 uM): 99%
- inhibition at 10 µM [3]: 21%
- % of inflammatory mediators production in the presence of compounds, IL6 [4]: 52.4%
- % of inflammatory mediators production in the presence of compounds, IL8 [4]: 34.8%
- % of inflammatory mediators production in the presence of compounds, MCP-1 [4]: 22.7%
- inhibition at 10 µM (p38alpha wt): 23%
- inhibition at 10 µM (p38αR186A): 17%

Molecule: Oc1nc(N/N=C/c2ccc3c(c2)OCO3)nc(N2CCOCC2)n1 [Compound 7]
- inhibition at 10 µM (p38alpha [1]; [6]): 16%

Molecule: p38αR186A (enzyme)
- kinase activity (ADP-glo kit) (% related to wild type protein) [5]: 15.5

Molecule: Nc1ccc(OCC(O)C[n+]2ccc(CCS(=O)(=O)[O-])cc2)cc1 (stereo not shown) [Compound 4]
- inhibition at 10 µM (p38alpha [1]; [6]): 8%

Molecule: COC(=O)c1ccc(Nc2nc3nonc3nc2N2CCC(Oc3ccc(Cl)cc3)CC2)cc1 [Compound 31]
- inhibition at 10 µM (p38αR189A): 27%
- Cell survival (THP-1 cells; 0.1 uM): 101%
- Cell survival (THP-1 cells; 1 uM): 100%
- Cell survival (THP-1 cells; 10 uM): 92%
- inhibition at 0.1 µM ([3]; 0.1 uM): 20%
- inhibition at 1 µM [3]: 43%
- inhibition at 10 µM [3]: 60%
- inhibition at 10 µM (p38alpha wt): 84%
- inhibition at 10 µM (p38αR186A): 35%

Molecule: CCOC(=O)c1ccc(Nc2nc3nonc3nc2N2CCC(Sc3ccc(C)cc3)CC2)cc1 [Compound 15]
- inhibition at 10 µM (p38αR189A): 20%
- Cell survival (THP-1 cells; 1 uM): 92%
- Cell survival (THP-1 cells; 10 uM): 97%
- inhibition at 1 µM [3]: 17%
- inhibition at 10 µM [3]: 32%
- inhibition at 10 µM (p38alpha wt): 61%
- inhibition at 10 µM (p38αR186A): 28%

Further lines, with some results ahead:

- inhibition at 10 µM (p38alpha [1]; [6]): 1%
Molecule: O=S(=O)(c1cnccc1N1CCN(CCO)CC1)N1CCOCC1 [Compound 11]

- inhibition at 10 µM (p38alpha [1]; [6]): 107%
Molecule: CCOCCCNc1nc2nnnn2c2sc3c(c12)CCN(Cc1ccccc1)C3 [Compound 6]

- inhibition at 10 µM (p38alpha [1]; [6]): 28%
Molecule: CC(C)n1nnnc1C(c1ccc(O)cc1)N1CCN(c2nc3ccccc3s2)CC1 (stereo not shown) [Compound 5]

- inhibition at 100 µM (p38alpha [1]; [6]): 17%
Molecule: COc1ccccc1NC(=O)C[C@H](NCCCO)C(=O)O [Compound 3]

- inhibition at 100 µM (p38alpha [1]; [6]): 20%
Molecule: OCCOc1nc(OCCO)nc(OCCO)n1 [Compound 8]
- % of inflammatory mediators production in the presence of compounds, IL6 [4]: 66.5%
- % of inflammatory mediators production in the presence of compounds, IL8 [4]: 83.4%
- % of inflammatory mediators production in the presence of compounds, MCP-1 [4]: 75.4%
